Laboratory results: patent US20150105252A1, “SUBSTITUTED PYRAZOLES AS HERBICIDES” (E I DU PONT DE NEMOURS AND COMPANY, priority 2013, published 2015)

Assays:
[1] = test system: barnyardgrass; test: Test B flood; format: in vivo, Echinochloa crus-galli; settings: 250 g ai/ha, visual rating on 0 to 100 scale (0 no effect, 100 complete control), 13 to 15 days
Outline: (§1)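 Greenhouse assay lasting 13 to 15 days. Treatment was into water flooding pots 3 cm deep, at the 2-leaf stage, with that level sustained afterwards. Scores compare treated with control plants visually, 100 denoting complete control and 0 no effect; a dash marks no test result.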

[2] = test system: foxtail, giant; test: Test A preemergence; format: in vivo, Setaria faberii
Outline: (§2)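 Scoring was visual, on a scale where 100 means complete control and 0 means no effect, comparing treated with untreated plants around 10 days post-application. Compounds in surfactant-containing non-phytotoxic solvent were sprayed onto soil preemergence or onto one- to two-leaf seedlings (2–10 cm) postemergence.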

[3] = test system: crabgrass, large; test: Test A postemergence; format: in vivo, Digitaria sanguinalis
Outline: as §2

[4] = test system: morningglory; test: Test A preemergence; format: in vivo, Ipomoea spp.
Outline: as §2

[5] = test system: pigweed; test: Test A preemergence; format: in vivo, Amaranthus retroflexus
Outline: as §2

[6] = test system: morningglory; test: Test A postemergence; format: in vivo, Ipomoea spp.
Outline: as §2

[7] = test system: foxtail, giant; test: Test A postemergence; format: in vivo, Setaria faberii
Outline: as §2

[8] = test system: velvetleaf; test: Test A postemergence; format: in vivo, Abutilon theophrasti
Outline: as §2

[9] = test system: ducksalad; test: Test B flood; format: in vivo, Heteranthera limosa; settings: 250 g ai/ha, visual rating on 0 to 100 scale (0 no effect, 100 complete control), 13 to 15 days
Outline: as §1

[10] = test system: barnyardgrass; test: Test A postemergence; format: in vivo, Echinochloa crus-galli
Outline: as §2

[11] = test system: wheat; test: Test A preemergence; format: in vivo, Triticum aestivum; settings: preemergence
Outline: as §2

[12] = test system: wheat; test: Test A postemergence; format: in vivo, Triticum aestivum
Outline: as §2

[13] = test system: pigweed; test: Test A postemergence; format: in vivo, Amaranthus retroflexus
Outline: as §2

[14] = test system: crabgrass, large; test: Test A preemergence; format: in vivo, Digitaria sanguinalis
Outline: as §2

[15] = test system: corn; test: Test A preemergence; format: in vivo, Zea mays
Outline: as §2

[16] = test system: sedge, umbrella; test: Test B flood; format: in vivo, Cyperus difformis; settings: 250 g ai/ha, visual rating on 0 to 100 scale (0 no effect, 100 complete control), 13 to 15 days
Outline: as §1

[17] = test system: barnyardgrass; test: Test A preemergence; format: in vivo, Echinochloa crus-galli
Outline: as §2

[18] = test system: velvetleaf; test: Test A preemergence; format: in vivo, Abutilon theophrasti
Outline: as §2

[19] = test system: corn; test: Test A postemergence; format: in vivo, Zea mays
Outline: as §2

[20] = test system: rice; test: Test B flood; format: in vivo, Oryza sativa; settings: 250 g ai/ha, visual rating on 0 to 100 scale (0 no effect, 100 complete control), 13 to 15 days
Outline: as §1

[21] = preemergence, 125 g ai/ha, visual injury, 0 to 100 scale, approx. 10 days
[22] = preemergence, 500 g ai/ha, visual injury after approx. 10 days, 0 to 100 scale (0 no effect, 100 complete control)
[23] = Postemergence, 500 g ai/ha, visual rating after approx. 10 days, 0 to 100 scale (0 no effect, 100 complete control)
[24] = postemergence, 125 g ai/ha, about 10 days, visual rating on 0 to 100 scale (0 no effect, 100 complete control)
[25] = 125 g ai/ha, visual injury, 0 to 100 scale, approx. 10 days
[26] = 500 g ai/ha, visual injury after approx. 10 days, 0 to 100 scale (0 no effect, 100 complete control)
[27] = Preemergence, 500 g ai/ha, 0 to 100 scale, 0 no effect, 100 complete control

## CCc1cc(-c2ccc(F)cc2)nn1Cc1ccnc(C(F)(F)F)c1 [Compound 111]
[1]
  Plant response rating, Barnyardgrass: 15
[2]; [21]
  Foxtail, Giant plant response rating: 90
[2]; [22]
  Foxtail, Giant plant response rating: 100
[3]; [23]
  Crabgrass, Large plant response rating: 100
[3]; [24]
  Crabgrass, Large plant response rating: 30
[4]; [21]
  Morningglory plant response rating: 0
[4]; [22]
  Morningglory plant response rating: 30
[5]; [21]
  Pigweed plant response rating: 20
[5]; [22]
  Pigweed plant response rating: 100
[6]; [23]
  Morningglory plant response rating: 100
[6]; [24]
  Morningglory plant response rating: 90
[7]; [23]
  Foxtail, Giant plant response rating: 100
[7]; [24]
  Foxtail, Giant plant response rating: 40
[8]; [23]
  Velvetleaf plant response rating: 90
[8]; [24]
  Velvetleaf plant response rating: 40
[9]
  Plant response rating, Ducksalad: 0
[10]; [23]
  Barnyardgrass plant response rating: 80
[10]; [24]
  Barnyardgrass plant response rating: 20
[11]; [25]
  Wheat plant response rating: 0
[11]; [26]
  Wheat plant response rating: 0
[12]; [23]
  Wheat plant response rating: 30
[12]; [24]
  Wheat plant response rating: 10
[13]; [23]
  Pigweed plant response rating: 100
[13]; [24]
  Pigweed plant response rating: 80
[14]; [21]
  Crabgrass, Large plant response rating: 90
[14]; [22]
  Crabgrass, Large plant response rating: 100
[15]; [21]
  Corn plant response rating: 0
[15]; [22]
  Corn plant response rating: 0
[16]
  Plant response rating, Sedge, Umbrella: 90
[17]; [21]
  Barnyardgrass plant response rating: 10
[17]; [22]
  Barnyardgrass plant response rating: 90
[18]; [21]
  Velvetleaf plant response rating: 10
[18]; [22]
  Velvetleaf plant response rating: 30
[19]; [23]
  Corn plant response rating: 50
[19]; [24]
  Corn plant response rating: 10
[20]
  Plant response rating, Rice: 20

## CCc1cc(C(=O)NCC(F)(F)F)nn1Oc1ccnc(C(F)(F)F)c1 [Compound 84]
[1]
  Plant response rating, Barnyardgrass: 0
[2]; [27]
  Foxtail, Giant plant response rating: 80
[2]; [21]
  Foxtail, Giant plant response rating: 40
[3]; [23]
  Crabgrass, Large plant response rating: 50
[3]; [24]
  Crabgrass, Large plant response rating: 20
[4]; [27]
  Morningglory plant response rating: 30
[4]; [21]
  Morningglory plant response rating: 0
[5]; [27]
  Pigweed plant response rating: 100
[5]; [21]
  Pigweed plant response rating: 50
[6]; [23]
  Morningglory plant response rating: 70
[6]; [24]
  Morningglory plant response rating: 20
[7]; [23]
  Foxtail, Giant plant response rating: 50
[7]; [24]
  Foxtail, Giant plant response rating: 10
[8]; [23]
  Velvetleaf plant response rating: 30
[8]; [24]
  Velvetleaf plant response rating: 20
[9]
  Plant response rating, Ducksalad: 20
[10]; Postemergence, 125 g ai/ha, 0 to 100 scale, 0 no effect, 100 complete control
  Barnyardgrass plant response rating: 10
[10]; [23]
  Barnyardgrass plant response rating: 30
[11]; [25]
  Wheat plant response rating: 0
[11]; [26]
  Wheat plant response rating: 50
[12]; [23]
  Wheat plant response rating: 40
[12]; [24]
  Wheat plant response rating: 0
[13]; [23]
  Pigweed plant response rating: 20
[13]; [24]
  Pigweed plant response rating: 10
[14]; [27]
  Crabgrass, Large plant response rating: 100
[14]; [21]
  Crabgrass, Large plant response rating: 90
[15]; [27]
  Corn plant response rating: 40
[15]; [21]
  Corn plant response rating: 10
[16]
  Plant response rating, Sedge, Umbrella: 60
[17]; [27]
  Barnyardgrass plant response rating: 70
[17]; [21]
  Barnyardgrass plant response rating: 10
[18]; [27]
  Velvetleaf plant response rating: 50
[18]; [21]
  Velvetleaf plant response rating: 0
[19]; [23]
  Corn plant response rating: 40
[19]; [24]
  Corn plant response rating: 10
[20]
  Plant response rating, Rice: 0
